According to article PMC8979682, “Synthesis, Antioxidant, and Antidiabetic Activities of Ketone Derivatives of Succinimide” (Evidence-based Complementary and Alternative Medicine : eCAM, 2022):
Converted amounts (≈) assume the structure as drawn.

What was measured:
[1] = tested on: diabetic mice (by alloxan); experiment: antidiabetic activity in diabetic mice (by alloxan); assay type: in vivo
Method: Alloxan was used for the induction of diabetes mellitus according to reported procedure. Recently prepared Alloxan (ALX) was injected intraperitoneally to animals, fasting for 16 h, at a single dose of (150 mg/kg). […] Only diabetic animals, having random blood glucose level more than 200 mg/dl, were selected for studies. All the experimental procedure were approved from the ethical committee department of pharmacy, University of Swabi via letter No; UOS-06/2021.
A total of 30 animals were used to determine the hypoglycemic effect of the synthesized derivatives of succinimide. The experimental animals were segregated in six groups […], having five (5) animals in each group. Group I was designated as normal group and was given normal saline I/P only. Group II was given Tween 80, and Group III was given standard drug (glibenclamide) after the induction of diabetes. Group IV, Group V, and Group VI were given the various doses of synthesized compounds, respectively. […]

α-amylase = experiment: in vitro α-amylase inhibition; assay type: biochemical
Method: The starch solution was added, following incubation of the mixture, and the reaction mixture thus prepared was kept in water bath at 100°C for some time. Microplate reader measured the intensity of the color at 656 nm. Following formula was used to determine percentage inhibition:(3) percent inhibition=absorbancecontrol−absorbancesample/absorbancecontrol×100.

DPPH scavenging activity = assay type: biochemical
Method: The antioxidant assay of the synthesized compounds was conducted following the previously reported method. A freshly prepared DPPH solution (50 μL of 1.0 × 10^−3 M) was added in methyl alcohol. Methanol was used as a control in this experiment. The prepared mixture was subjected to incubation at 25°C for 30 min. A decrease in the DPPH free radical concentration was calculated using a spectrophotometer at a wavelength of 517 nm. After incubation ascorbic acid was used as a positive control. The antioxidant activity was determined as a percent (%) of inhibition using the formula given:(1) percent inhibition=absorbancecontrol−absorbancesample/absorbancecontrol×100.

ABTS scavenging activity = assay type: biochemical
Method: For the determination of the antioxidant activity of the synthesized compounds, the previously reported method for ABTS scavenging activity was used with slight modification. The stock solution of 2.4 mM of potassium per sulfate solution and 7 mM ABTS solution was prepared by mixing them in equal volumes for 16 h. The stock solution thus prepared was diluted using methyl alcohol to give absorption of 0.7 ± 0.02 units when studied at the wavelength of 734 nm using a spectrophotometer. Fresh ABTS solution was prepared for each ABTS scavenging assay. About 150 μL of the ABTS working solution was added to 50 μL of synthesized compounds and kept in darkness for 10 min. […] Methanol was used as blank, and standard ascorbic acid was run at the same time. The absorbance was calculated utilizing a microplate reader at 734 nm.

mice = experiment: oral glucose tolerance test (OGTT); assay type: in vivo; conditions: glucose 2 g/kg orally
Method: To perform OGTT mice fasted overnight were used including both control and treated mice. Glucose was administered orally at the dose of 2 g/kg against glibenclamide as standard drug. After administration of glucose, blood glucose level was calculated at time intervals of 0, 30, 60, and 120 min for assessment of the impact of exogenously given D-glucose on treated mice. OGTT was carried out 5 days before the completion of the study.
To perform OGTT, mice fasted overnight were used including both control and treated mice. Glucose was administered orally at the dose of 2 g/kg against glibenclamide as a standard drug. After administration of glucose, blood glucose level was calculated at time intervals of 0, 30, 60, and 120 min for assessment of the impact of exogenously given D-glucose on treated mice.

α-glucosidase = experiment: in vitro α-glucosidase inhibition; assay type: biochemical
Method: For in vitro α-glucosidase activity, samples were prepared by adding glucopyranoside to phosphate buffer solvent, and different concentrations of the synthesized compounds (31.25, 62.5, 125, 250, and 500 µg/ml), respectively, were added to this solution and then the enzyme glucosidase in distilled water (0.5 µg/ml) was also added to the above mixture. The reaction mixture thus prepared was subjected to incubation at 37°C for 20 minutes. The reaction was halted by adding HCl after incubation of the mixture. The intensity of the color was determined at 540 nm by spectrophotometer, and the formula given below was used for the determination of percent inhibition:(2) percent inhibition=absorbancecontrol−absorbancesample/absorbancecontrol×100.

O=C1CCCCC1C1CC(=O)N(c2ccc(Br)cc2)C1=O (stereo not drawn) [BW3, (4-Bromophenyl)-3-(2-Oxocyclohexyl) Pyrrolidine-2,5-Dione]
Change in body weight ([1]; dose 31.25 μg/kg): −8.4 Gm | Decrease in blood glucose after 15 days ([1]; dose 31.25 μg/kg): -39 mg/dL | Blood glucose level, 0 day ([1]; dose 31.25 μg/kg): 439 mg/dL | Blood glucose level, 4th day ([1]; dose 31.25 μg/kg): 446 mg/dL | Blood glucose level, 7th day ([1]; dose 31.25 μg/kg): 457 mg/dL | Blood glucose level, 10th day ([1]; dose 31.25 μg/kg): 468 mg/dL | Blood glucose level, 15th day ([1]; dose 31.25 μg/kg): 478 mg/dL | Change in body weight ([1]; dose 62.5 μg/kg): −6.2 Gm | Decrease in blood glucose after 15 days ([1]; dose 62.5 μg/kg): -56 mg/dL | Blood glucose level, 0 day ([1]; dose 62.5 μg/kg): 443 mg/dL | Blood glucose level, 4th day ([1]; dose 62.5 μg/kg): 465 mg/dL | Blood glucose level, 7th day ([1]; dose 62.5 μg/kg): 478 mg/dL | Blood glucose level, 10th day ([1]; dose 62.5 μg/kg): 493 mg/dL | Blood glucose level, 15th day ([1]; dose 62.5 μg/kg): 499 mg/dL | Change in body weight ([1]; dose 125 μg/kg): +5.3 Gm | Decrease in blood glucose after 15 days ([1]; dose 125 μg/kg): -29 mg/dL | Blood glucose level, 0 day ([1]; dose 125 μg/kg): 387 mg/dL | Blood glucose level, 4th day ([1]; dose 125 μg/kg): 437 mg/dL | Blood glucose level, 7th day ([1]; dose 125 μg/kg): 430 mg/dL | Blood glucose level, 10th day ([1]; dose 125 μg/kg): 424 mg/dL | Blood glucose level, 15th day ([1]; dose 125 μg/kg): 416 mg/dL | Change in body weight ([1]; dose 250 μg/kg): −5.1 Gm | Decrease in blood glucose after 15 days ([1]; dose 250 μg/kg): 35 mg/dL | Blood glucose level, 0 day ([1]; dose 250 μg/kg): 431 mg/dL | Blood glucose level, 4th day ([1]; dose 250 μg/kg): 419 mg/dL | Blood glucose level, 7th day ([1]; dose 250 μg/kg): 411 mg/dL | Blood glucose level, 10th day ([1]; dose 250 μg/kg): 403 mg/dL | Blood glucose level, 15th day ([1]; dose 250 μg/kg): 396 mg/dL | Change in body weight ([1]; dose 500 μg/kg): +2.5 Gm | Decrease in blood glucose after 15 days ([1]; dose 500 μg/kg): 49 mg/dL | Blood glucose level, 0 day ([1]; dose 500 μg/kg): 430 mg/dL | Blood glucose level, 4th day ([1]; dose 500 μg/kg): 420 mg/dL | Blood glucose level, 7th day ([1]; dose 500 μg/kg): 401 mg/dL | Blood glucose level, 10th day ([1]; dose 500 μg/kg): 387 mg/dL | Blood glucose level, 15th day ([1]; dose 500 μg/kg): 381 mg/dL | IC50 (α-amylase) (α-amylase): 18.20 µg/mL (≈ 52 µM) | % inhibitions (α-amylase) (α-amylase; 31.25 µg/ml): 54.67 ± 0.35^∗∗∗ % | % inhibitions (α-amylase) (α-amylase; 62.50 µg/ml): 62.16 ± 0.12^∗∗∗ % | % inhibitions (α-amylase) (α-amylase; 125 µg/ml): 67.62 ± 0.03^∗∗∗ % | % inhibitions (α-amylase) (α-amylase; 250 µg/ml): 71.36 ± 1.15^∗∗∗ % | % inhibitions (α-amylase) (α-amylase; 500 µg/ml): 75.35 ± 0.89^∗∗∗ % | IC50 (DPPH) (DPPH scavenging activity): 15.93 µg/mL (≈ 45.5 µM) | (%) DPPH inhibitions (DPPH scavenging activity; 31.25 µg/ml): 57.69 ± 0.77^∗∗∗ % | (%) DPPH inhibitions (DPPH scavenging activity; 62.50 µg/ml): 66.67 ± 0.61^∗∗∗ % | (%) DPPH inhibitions (DPPH scavenging activity; 125 µg/ml): 71.79 ± 0.63^∗∗ % | (%) DPPH inhibitions (DPPH scavenging activity; 250 µg/ml): 76.90 ± 0.48^∗ % | (%) DPPH inhibitions (DPPH scavenging activity; 500 µg/ml): 83.03 ± 0.48^∗ % | IC50 (ABTS) (ABTS scavenging activity): 36.82 µg/mL (≈ 105 µM) | (%) ABTS inhibitions (ABTS scavenging activity; 31.25 µg/ml): 48.42 ± 0.43^ns % | (%) ABTS inhibitions (ABTS scavenging activity; 62.50 µg/ml): 53.33 ± 0.66^∗ % | (%) ABTS inhibitions (ABTS scavenging activity; 125 µg/ml): 58.40 ± 0.82^∗∗∗ % | (%) ABTS inhibitions (ABTS scavenging activity; 250 µg/ml): 64.90 ± 0.45^∗∗∗ % | (%) ABTS inhibitions (ABTS scavenging activity; 500 µg/ml): 70.56 ± 1.06^∗∗∗ % | OGTT blood glucose, 0 minutes (mice): 156.2 mg/dL | OGTT blood glucose, 30 minutes (mice): 174.1 mg/dL | OGTT blood glucose, 60 minutes (mice): 196.3 mg/dL | OGTT blood glucose, 120 minutes (mice): 145.4 mg/dL | IC50 (α-glucosidase) (α-glucosidase): 12.15 µg/mL (≈ 34.7 µM) | % inhibitions (α-glucosidase) (α-glucosidase; 31.25 µg/ml): 57.47 ± 0.56^∗∗∗ % | % inhibitions (α-glucosidase) (α-glucosidase; 62.50 µg/ml): 63.28 ± 0.57^∗∗∗ % | % inhibitions (α-glucosidase) (α-glucosidase; 125 µg/ml): 67.90 ± 0.96^∗∗∗ % | % inhibitions (α-glucosidase) (α-glucosidase; 250 µg/ml): 72.08 ± 0.47^∗∗∗ % | % inhibitions (α-glucosidase) (α-glucosidase; 500 µg/ml): 77.85 ± 2.24^∗∗∗ %

O=C1O[C@H]([C@@H](O)CO)C(O)=C1O [Ascorbic acid, reference compound]
IC50 (DPPH) (DPPH scavenging activity): 7.10 µg/mL (≈ 40.3 µM) | (%) DPPH inhibitions (DPPH scavenging activity; 31.25 µg/ml): 68.42 ± 0.43% | (%) DPPH inhibitions (DPPH scavenging activity; 62.50 µg/ml): 73.22 ± 1.28% | (%) DPPH inhibitions (DPPH scavenging activity; 125 µg/ml): 79.52 ± 0.66% | (%) DPPH inhibitions (DPPH scavenging activity; 250 µg/ml): 84.56 ± 0.45% | (%) DPPH inhibitions (DPPH scavenging activity; 500 µg/ml): 90.65 ± 1.32% | IC50 (ABTS) (ABTS scavenging activity): 6.84 µg/mL (≈ 38.8 µM) | (%) ABTS inhibitions (ABTS scavenging activity; 31.25 µg/ml): 63.89 ± 0.20% | (%) ABTS inhibitions (ABTS scavenging activity; 62.50 µg/ml): 75.45 ± 0.90% | (%) ABTS inhibitions (ABTS scavenging activity; 125 µg/ml): 77.61 ± 0.43% | (%) ABTS inhibitions (ABTS scavenging activity; 250 µg/ml): 82.40 ± 0.20% | (%) ABTS inhibitions (ABTS scavenging activity; 500 µg/ml): 87.08 ± 0.47%

COc1ccc(Cl)cc1C(=O)NCCc1ccc(S(=O)(=O)NC(=O)NC2CCCCC2)cc1 [Glibenclamide, reference compound]
Change in body weight ([1]; dose 0.5 (μg/kg)): +10.3 Gm | Decrease in blood glucose after 15 days ([1]; dose 0.5 (μg/kg)): 275 mg/dL | Blood glucose level, 0 day ([1]; dose 0.5 (μg/kg)): 473 mg/dL | Blood glucose level, 4th day ([1]; dose 0.5 (μg/kg)): 303 mg/dL | Blood glucose level, 7th day ([1]; dose 0.5 (μg/kg)): 257 mg/dL | Blood glucose level, 10th day ([1]; dose 0.5 (μg/kg)): 212 mg/dL | Blood glucose level, 15th day ([1]; dose 0.5 (μg/kg)): 198 mg/dL | OGTT blood glucose, 0 minutes (mice): 151.5 mg/dL | OGTT blood glucose, 30 minutes (mice): 176.7 mg/dL | OGTT blood glucose, 60 minutes (mice): 214.3 mg/dL | OGTT blood glucose, 120 minutes (mice): 140.5 mg/dL

C[C@H]1O[C@H](O[C@H]2[C@H](O)[C@@H](O)[C@@H](O[C@H]3[C@H](O)[C@@H](O)C(O)O[C@@H]3CO)O[C@@H]2CO)[C@H](O)[C@@H](O)[C@@H]1N[C@H]1C=C(CO)[C@@H](O)[C@H](O)[C@H]1O (stereo partly drawn) [Acarbose, reference compound]
% inhibitions (α-amylase) (α-amylase; 31.25 µg/ml): 63.62 ± 0.58% | % inhibitions (α-amylase) (α-amylase; 62.50 µg/ml): 69.42 ± 1.55% | % inhibitions (α-amylase) (α-amylase; 125 µg/ml): 76.20 ± 0.49% | % inhibitions (α-amylase) (α-amylase; 250 µg/ml): 82.47 ± 0.71% | % inhibitions (α-amylase) (α-amylase; 500 µg/ml): 87.75 ± 0.42% | % inhibitions (α-glucosidase) (α-glucosidase; 31.25 µg/ml): 67.90 ± 0.45% | % inhibitions (α-glucosidase) (α-glucosidase; 62.50 µg/ml): 73.00 ± 0.30% | % inhibitions (α-glucosidase) (α-glucosidase; 125 µg/ml): 80.90 ± 0.60% | % inhibitions (α-glucosidase) (α-glucosidase; 250 µg/ml): 86.45 ± 0.90% | % inhibitions (α-glucosidase) (α-glucosidase; 500 µg/ml): 92.23 ± 0.22%
